Laboratory results as given in PubChem BioAssay (NCI).
“And” between values parts separate entries of the source, which are not always exact repeats. Equal values may be shown once.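 How tested: cells in 96-well plates exposed to compound for 48 hours at five concentrations. Abbreviation: GI50, concentration required for 50% inhibition of growth. TGI is the concentration that stops growth completely.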

Legend:
Experiment in all cases: NCI anticancer screen, dose series, 48 h
CAKI-1 renal = tested on: CAKI-1 renal
DU-145 prostate = tested on: DU-145 prostate
EKVX NSCLC = tested on: EKVX NSCLC
IGROV1 ovarian = tested on: IGROV1 ovarian
OVCAR-3 ovarian = tested on: OVCAR-3 ovarian
PC-3 prostate = tested on: PC-3 prostate
RXF 393 renal = tested on: RXF 393 renal
SK-MEL-2 melanoma = tested on: SK-MEL-2 melanoma
SN12C renal = tested on: SN12C renal
SNB-19 CNS = tested on: SNB-19 CNS

Structure (SMILES) | GI50 (CAKI-1 renal) | TGI (CAKI-1 renal) | GI50 (DU-145 prostate) | TGI (DU-145 prostate) | GI50 (EKVX NSCLC) | TGI (EKVX NSCLC) | GI50 (IGROV1 ovarian) | TGI (IGROV1 ovarian) | GI50 (OVCAR-3 ovarian) | TGI (OVCAR-3 ovarian) | GI50 (PC-3 prostate) | TGI (PC-3 prostate) | GI50 (RXF 393 renal) | TGI (RXF 393 renal) | GI50 (SK-MEL-2 melanoma) | TGI (SK-MEL-2 melanoma) | GI50 (SN12C renal) | TGI (SN12C renal) | GI50 (SNB-19 CNS) | TGI (SNB-19 CNS)
C[C@@H]1COCCN1c1cc(C2([S@](C)(=N)=O)CC2)nc(-c2ccnc3[nH]ccc23)n1 | 6.06 µM and 4.17 µM | 75.9 µM and > 10 µM | 3.1 µM and 3.64 µM | > 100 µM | 6.07 µM and > 10 µM | 61.7 µM and > 10 µM | 4.24 µM and 2.23 µM | 68.6 µM and > 10 µM | 4.16 µM and 5.15 µM | > 80.6 µM | 12.2 µM and > 10 µM | > 100 µM | 1.33 µM and 3.34 µM | 6.37 µM and > 10 µM | 3.74 µM and 1.56 µM | 26.2 µM and > 10 µM | 5.04 µM and 9.13 µM | > 100 µM | 3.96 µM and 6.33 µM | > 100 µM
OC(c1cccc(-n2ccc(C(F)(F)F)n2)c1)c1cnccc1NC1CCCCCC1 (centres undefined) | 1.57 µM | 2.96 µM | 1.81 µM | 3.24 µM | 1.66 µM | 3.16 µM | 1.53 µM | 2.92 µM | 1.76 µM | 3.22 µM | 1.59 µM | 3.09 µM | 1.36 µM | 2.74 µM | 2.01 µM | 3.82 µM | 1.69 µM | 3.2 µM | 1.73 µM | 3.24 µM
COc1ccc2oc(=O)cc(C(c3ccc[nH]3)c3ccc[nH]3)c2c1 | – | 13.1 µM | – | 12.8 µM | 0.278 µM | 21.5 µM | 0.106 µM | 17.6 µM | 0.0803 µM | 0.146 µM | 0.108 µM | 15.5 µM | 0.0902 µM | 0.44 µM | 0.616 µM | 13.2 µM | 0.148 µM | 15.8 µM | 0.132 µM | 16.4 µM
O=C(O)CCNc1ccccc1C(=O)O | – | > 100 µM | – | > 100 µM | – | > 100 µM | – | > 100 µM | – | > 100 µM | – | > 100 µM | – | > 100 µM | – | > 100 µM | – | > 100 µM | – | > 100 µM
Cc1cccc(NC(=O)CCc2ccc(N3C(N)=NC(N)=NC3(C)C)cc2)c1 | 97.3 µM | > 100 µM | 0.941 µM | > 100 µM | – | > 100 µM | 0.603 µM | > 100 µM | 6.76 µM | > 100 µM | 0.089 µM | > 66.4 µM | > 42.1 µM | > 100 µM | > 33.6 µM | > 100 µM | 0.575 µM | > 100 µM | 8.35 µM | > 100 µM
COc1ccc(OC)c(/C=N/NC(=O)Cc2csc3nc(-c4ccc(Br)cc4)cn23)c1 | 12.6 µM | 34.2 µM | 17.9 µM | 48 µM | 17.1 µM | 57.6 µM | 4.02 µM | 26.7 µM | 15.9 µM | 59 µM | 13.5 µM | 93.8 µM | 19 µM | 67.4 µM | 89.7 µM | > 100 µM | 20.7 µM | 49.4 µM | 31.4 µM | > 100 µM
Clc1ccc(CSC(Cn2ccnc2)c2ccc(Cl)cc2Cl)cc1 (centres undefined) | 1.55 µM | 4.05 µM | 2.09 µM | 4.64 µM | 1.53 µM | 4.55 µM | 1.74 µM | 4.55 µM | 1.54 µM | 2.87 µM | 1.21 µM | 3.61 µM | 1.43 µM | 2.76 µM | 1.52 µM | 3 µM | 1.53 µM | 2.87 µM | 1.52 µM | 2.89 µM
CN(C)CCOc1ccc(-c2nc(-c3ccc4c(c3)CC/C4=N\O)c(-c3ccncc3)[nH]2)cc1 | 5.18 µM and 16.9 µM | 19.5 µM and 44.8 µM | 4.11 µM and 9.02 µM | 7.82 µM and 17.4 µM | 4.7 µM and 9 µM | 11 µM and 38.4 µM | 4.38 µM and 18.6 µM | 9.35 µM and 65.6 µM | 4.42 µM and 4.34 µM | 8.49 µM and 8.94 µM | 4.09 µM and 5.66 µM | 8.12 µM and 13.7 µM | 4.37 µM and 4.3 µM | 9.58 µM and 8.17 µM | 0.108 µM and 0.367 µM | – | 4.68 µM and 9.41 µM | 8.83 µM and 25.9 µM | 5.29 µM and 5.01 µM | 10.8 µM and 9.56 µM
O=C1c2ccccc2-c2c1c1ccccc1c(=O)n2CCCCNCCCn1c2c(c3ccccc3c1=O)C(=O)c1ccccc1-2 | 0.71 µM | 4.21 µM | 0.379 µM | 1.12 µM | 0.782 µM | 1.75 µM | – | – | 0.509 µM | 2.06 µM | 0.245 µM | 1.05 µM | 0.33 µM | 7.08 µM | 3.51 µM | 15.2 µM | 0.158 µM | 1.13 µM | 0.51 µM | 10.4 µM
O=[N+]([O-])c1ccc(S(=O)(=O)Cc2ccccc2)c([N+](=O)[O-])c1 | – | 3.2 µM | – | 9.59 µM | – | 4.36 µM | – | 6.36 µM | – | 2.57 µM | – | 3.45 µM | – | 3.4 µM | – | 8.62 µM | – | – | – | 39.6 µM
CCSCC1CC(O)(c2ccccc2)C(c2ccccc2)C(c2ccc(Cl)cc2)O1 (centres undefined) | 1.49 µM | 4.06 µM | 1.99 µM | 4.4 µM | 1.38 µM | 4.29 µM | 2.01 µM | 4.88 µM | 1.74 µM | 4.2 µM | 1.48 µM | 4.86 µM | 0.688 µM | 2.06 µM | 1.73 µM | 3.5 µM | 1.52 µM | 3.13 µM | – | –
NCCNc1c2c(c(NCCN)c3c(CO)c[nH]c13)C(=O)c1ccccc1C2=O | – | – | 12 µM | > 100 µM | 19.7 µM | 56.2 µM | 15 µM | > 100 µM | 1.14 µM | 30.7 µM | 20.1 µM | > 100 µM | 5.84 µM | 34.7 µM | – | – | 1.59 µM | 12.8 µM | 3.34 µM | > 100 µM
C=CC[n+]1c(/C=C/C=C2\N(C)c3ccccc3C2(C)C)sc2ccc(OC)cc21 | – | – | 0.34 µM | 15.6 µM | 0.264 µM | 15.5 µM | 0.521 µM | 21.6 µM | 0.176 µM | 22.2 µM | 0.215 µM | 12.2 µM | 0.431 µM | 13.7 µM | 0.27 µM | 5.22 µM | 0.283 µM | 11.8 µM | 0.289 µM | 14.4 µM
Cc1ccc(S(=O)(=O)OC2CCN(C)CC2)cc1 | – | – | – | > 100 µM | – | > 100 µM | – | > 100 µM | – | > 100 µM | – | > 100 µM | – | > 100 µM | – | > 100 µM | – | > 100 µM | – | > 100 µM
